Test results reported in patent publication US9987237B2, “Methods and devices for using isoperillyl alcohol” (NEONC TECHNOLOGIES INC., priority 2010, dated 2018).

Tests used:
[1] = tested on: LN229 human glioma cells; assay: MTT cytotoxicity assay, LN229 glioma cells; assay type: cell-based
Source text: (§1) J. of Immunological Methods 65: 55 63, 1983. The cytoxicity of the present compound may be studied by colony formation assay. […] Invasion inhibition may be studied by Boyden chambers. In this assay a layer of reconstituted basement membrane. […] Sigma POH is the POH purchased from Sigma Chemicals having a purity of about 96%. […] KWH0744 is the crude POH purchased from Wako having a purity of about 89.5%. […] In vitro cytotoxicity of iso-POH in temozolomide-sensitive or temozolomide-resistant cells were also studied. […] Similarly.

[2] = tested on: U251 human glioma cells; assay: MTT cytotoxicity assay, U251 glioma cells; assay type: cell-based
Source text: as §1

[3] = tested on: A172 human glioma cells; assay: MTT cytotoxicity assay, A172 glioma cells; assay type: cell-based
Source text: as §1

[4] = tested on: A172 temozolomide-resistant cells; assay: MTT cytotoxicity assay, A172 temozolomide-resistant cells; assay type: cell-based, human; conditions: 48 hours, FIG. 4B
Source text: (§2) J. of Immunological Methods 65: 55 63, 1983. The cytoxicity of the present compound may be studied by colony formation assay. […] Invasion inhibition may be studied by Boyden chambers. In this assay a layer of reconstituted basement membrane. […] In vitro cytotoxicity of iso-POH in temozolomide-sensitive or temozolomide-resistant cells were also studied. […] Similarly.

[5] = tested on: U251 temozolomide-resistant cells; assay: MTT cytotoxicity assay, U251 temozolomide-resistant cells; assay type: cell-based, human; conditions: 0 mM-3 mM
Source text: as §2

[6] = tested on: LN229 temozolomide-resistant cells; assay: MTT cytotoxicity assay, LN229 temozolomide-resistant cells; assay type: cell-based, human; conditions: 48 hours, FIG. 6B
Source text: as §2

[7] = tested on: U87 human glioma cells; assay: MTT cytotoxicity assay, U87 glioma cells; assay type: cell-based; conditions: U87 temozolomide sensitive, 48 hours, FIG. 7A
Source text: as §2

[8] = tested on: U87 temozolomide-resistant cells; assay: MTT cytotoxicity assay, U87 temozolomide-resistant cells; assay type: cell-based, human; conditions: 48 hours, FIG. 7B
Source text: as §2

[9] = tested on: glucose-regulatory protein 78 (GRP-78) and the apoptosis marker CHOP; assay: Western blot for ER stress markers in U251 cells; assay type: cell-based, human; conditions: U251 TMZ-sensitive and TMZ-resistant (U251-TR1, U251-TR2) cells, 1.5 mM, 18 hours
Description: U251 TMZ-sensitive and TMZ-resistant (U251-TR1, U251-TR2) cells were treated with Sigma POH (1.5 mM) or GLP POH (1.5 mM) for 18 hours, then Western blot was performed.

[10] = tested on: Kras; assay: Western blot for Kras expression in U251 glioma cells; assay type: cell-based, human; conditions: 500 μM, 24 hours
Description: U251 glioma cells were treated with 500 μM Sigma POH, GLP POH or iso-POH (isoPOH65, isoPOH79) for 24 hours, then Western blot was performed.

Row | SMILES | cytotoxicity (MTT) ([1]; LN229 human glioma cells, FIG. 1, versus POH of different purity) | cytotoxic response (MTT) ([1]; LN229 temozolomide sensitive, 48 hours, FIG. 6A) | cytotoxicity (MTT) ([2]; TMZ sensitive U251, 24 hours, 0 mM-3 mM, FIG. 8A) | cytotoxic response (MTT) ([2]; U251 temozolomide-sensitive, 48 hours, FIG. 5A) | cytotoxicity (MTT) ([2]; U1251 human glioma cells, FIG. 2, versus POH of different purity) | cytotoxicity (MTT) ([3]; A172 human glioma cells, FIG. 3, versus POH of different purity) | cytotoxic response (MTT) ([3]; A172 temozolomide-sensitive, 48 hours, FIG. 4A, compared to GLP POH and Sigma POH) | cytotoxic response (MTT) [4] | cytotoxicity (MTT) ([5]; U251-TR1, 24 hours, FIG. 8C) | cytotoxicity (MTT) ([5]; U251-TR2, 24 hours, FIG. 8B) | cytotoxic response (MTT) [6] | cytotoxic response (MTT) [7] | cytotoxic response (MTT) [8] | endoplasmic reticulum (ER) stress [9] | Kras expression [10] | expression of glucose-regulatory protein 78 (GRP-78) [9] | expression of the apoptosis marker CHOP [9]
1 | CC(C)=C1CC=C(CO)CC1 [iso-POH, (4-isopropylidene cyclohex-1-enyl)methanol] | much better cytotoxicity than POH with different purity | same response | greater cytotoxicity | greatest response | much better cytotoxicity than POH with different purity | much better cytotoxicity than POH with different purity | greatest cytotoxic response | response pattern was also seen | greater cytotoxicity | greater cytotoxicity | same response | greatest response | greatest response | increased ER stress | decreased Kras expression |  | 
2 | C=C(C)[C@@H]1CC=C(CO)CC1 [Sigma POH, perillyl alcohol] |  |  |  |  |  |  |  |  |  |  |  |  |  | increased endoplasmic reticulum (ER) stress | decreased Kras expression | increased expression | increased expression
